Reference: article PMC9913752, “Proof-of-Concept Study of an Alpha-Fetoprotein-Derived Peptide for the Management of Canine Mammary Cancer” (Animals : an Open Access Journal from MDPI, 2023)
Like-named read-outs stand apart in the source and are kept apart here. Where a SMILES comes first, the peptide text is derived from it. [ ]: non-standard residue; d: D form. Hyp = O=C(O)[C@@H]1C[C@@H](O)CN1

Legend:
[1] = tested on: ER-positive primary canine mammary cancer cells; details: cited from earlier work
Description: It is important to note that during the development of AFPep, head-to-tail cyclization was carried out to increase stability as well as oral bioavailability. Other investigators have shown that the cyclization of peptides increases bioavailability.

[2] = in vivo; design: species or system Macaca mulatta; details: monkey
Description: (§1) AFPep (4 mg/kg) was administered by parenteral (i.v., s.c.) as well as oral routes to normal adult mice, dogs, and monkeys. Blood samples were obtained from anesthetized mice via the retroorbital plexus. Blood samples from dogs and monkeys were obtained through an indwelling catheter in the cephalic vein by the veterinarian staff at Albany Medical College. Dogs were awake and alert during sampling; monkeys were under anesthesia, as previously described. For the oral route, gavage was used in mice and monkeys; enteric capsules ([…]) containing AFPep were used and were readily swallowed by dogs. AFPep blood levels were measured using lliquid chromatography and mass spectrometry, as previously described.

[3] = 8-day repeat-dose study, AFPep blood levels in tumor-bearing dogs; assay type: in vivo, dog; details: for level at 0.5 h: female, dog, blood, sc, 10 mg
Source text: Previous studies utilizing repeat dosing in mice and rats established safe starting doses for studies using dogs. Female dogs with one or more spontaneously occurring mammary gland tumors greater than approximately 2 cm in maximum diameter, presenting to the Cancer Institute at the Schwarzman Animal Medical Center in New York City, were screened for inclusion in the study. […] All dogs underwent complete clinical staging, consisting of a complete blood count with cell differential, clinical chemistry, and urinalysis. Dogs were administered AFPep 10 mg s.c. once daily for 8 consecutive days. Tumors were biopsied prior to the administration of AFPep and were surgically removed on day 8 after the last injection of AFPep. Blood levels of AFPep were measured before and 30 minutes following its administration on the first day and eighth day of treatment with AFPep. Histopathology was obtained on all mammary gland tumors. Tolerability was assessed using the Veterinary Cooperative Oncology Group Common Terminology Criteria for Adverse Events. Blood chemistry and hematology analyses were performed at IDEXX Laboratories Inc. (Westbrook, ME, USA), using the Sysmex XT and Beckman AU 5800 systems. This study was approved by the Schwarzman Animal Medical Center IACUC and informed consent was obtained in writing from all owners.

[4] = tested on: Estrogen-induced mammary tumors; details: cited from earlier work
Source text: Table 1 The therapeutic and preventive efficacy of AFPep * in rodent models of mammary cancer. | column: Estrogen-Induced Mammary Tumors in ACI Rats ^3 || As models for preventive interventions, two widely used mammary cancer induction models in rats were studied to assess the cancer prevention capabilities of AFPep.

[5] = tested on: MCF-7 human breast cancer xenografts; details: cited from earlier work
Description: Table 1 The therapeutic and preventive efficacy of AFPep * in rodent models of mammary cancer. | column: MCF-7 Human Breast Cancer Growth in SCID Mice ^1 || The efficacy of AFPep in various models of mammary cancer has been shown in multiple reports. […] A 4 mg/kg dose was assessed parenterally, and the dosage was escalated to 100 mg/kg, administered orally.

[6] = Pharmacokinetics in dogs; assay type: in vivo; details: dog; for AUC / Cmax: plasma LC/MS/MS
Description: as §1

[7] = Blood chemistry and hematology after single i.v. dose in dogs; assay type: in vivo, dog; design: Bilirubin Conjugated / WBC: unit not given here
Description: Monkeys (Macaca mulatta, males) were contractually available through the Animal Resource Facility at Albany Medical College. The monkeys were used to assess pharmacokinetics and tolerability, in anticipation of future human studies. For dogs and monkeys, the full panels of clinical chemistry and hematology parameters were assessed. Monkeys were housed and cared for in accordance with the Guide for the Care and Use of Laboratory Animals (National Research Council, Washington, DC, USA). They were fed a standard Old World monkey diet, enriched with fruits and vegetables and other dietary novelties.

[8] = Pharmacokinetics in mice; assay type: in vivo; details: mouse; for Cmax / AUC: plasma LC/MS/MS; for half-life: in vivo
Description: as §1

[9] = p.o. enteric capsules (DRcaps), 4 mg/kg per footnote (100 mg/kg orally)
[10] = dogs ~10 kg, 24 h after i.v. 40 mg AFPep, average from 2 dogs
[11] = dogs ~10 kg, 24 h after i.v. 40 mg AFPep, average ± range from 2 dogs, in U/L (unit assumed)
[12] = dogs ~10 kg, 24 h after i.v. 40 mg AFPep, average ± range from 2 dogs, in g/dL (unit assumed)
[13] = dogs ~10 kg, 24 h after i.v. 40 mg AFPep, average ± range from 2 dogs, in mg/dL (unit assumed)
[14] = dogs ~10 kg, 24 h after i.v. 40 mg AFPep, average ± range from 2 dogs, in mmol/L (unit assumed)

CC(C)[C@@H]1NC(=O)[C@@H]2C[C@@H](O)CN2C(=O)[C@H]([C@@H](C)O)NC(=O)[C@H](CCCCN)NC(=O)[C@H](CCC(=O)O)NC(=O)[C@H](CC(N)=O)NC(=O)CNC(=O)[C@@H]2C[C@@H](O)CN2C(=O)[C@H](CC(N)=O)NC1=O [AFPep] (cyclo(EKT[Hyp]VN[Hyp]GN))
activity against ER-positive primary canine mammary cancer cells growing in culture [1]: effective | AUC ([2]; iv, 4 mg/kg): 26200 ng·h/mL | Cmax ([2]; iv, 4 mg/kg): 13000 ng/mL | half-life ([2]; iv, 4 mg/kg): 107 min | half-life ([2]; po): 810 min | AUC ([2]; sc, 4 mg/kg): 23400 ng·h/mL | Cmax ([2]; sc, 4 mg/kg): 8200 ng/mL | half-life ([2]; sc, 4 mg/kg): 27 min | AFPep blood level, Day 8 Pre-Treatment ([3]; Chihuahua, 7.53 kg, 10 mg s.c. once daily for 8 days, single animal): 0 ng/mL | AFPep blood level, Day 8 Pre-Treatment ([3]; Pitbull, 30.2 kg, 10 mg s.c. once daily for 8 days, single animal): 0 ng/mL | AFPep blood level, Day 8 Pre-Treatment ([3]; Pomeranian, 7.98 kg, 10 mg s.c. once daily for 8 days, single animal): 0 ng/mL | AFPep blood level, Day 8 Pre-Treatment ([3]; Shih tzu, 11.02 kg, 10 mg s.c. once daily for 8 days, single animal): 0 ng/mL | AFPep blood level, Day 8 Pre-Treatment ([3]; Yorkshire terrier, 5.86 kg, 10 mg s.c. once daily for 8 days, single animal): 0 ng/mL | level at 0.5 h ([3]; Pomeranian, Pomeranian, 7.98 kg, 30 min after 10 mg s.c., single animal, read-out: AFPep blood level, Day 1 Post-Treatment): 2400 ng/mL | level at 0.5 h ([3]; Pomeranian, Pomeranian, 7.98 kg, 30 min after dose, 10 mg s.c. once daily for 8 days, single animal, read-out: AFPep blood level, Day 8 Post-Treatment): 2100 ng/mL | level at 0.5 h ([3]; Poodle mix, Poodle mix, 5.80 kg, 30 min after 10 mg s.c., single animal, read-out: AFPep blood level, Day 1 Post-Treatment): 4400 ng/mL | level at 0.5 h ([3]; Poodle mix, Poodle mix, 5.80 kg, 30 min after dose, 10 mg s.c. once daily for 8 days, single animal, read-out: AFPep blood level, Day 8 Post-Treatment): 5000 ng/mL | level at 0.5 h ([3]; Yorkshire terrier, Yorkshire terrier, 5.86 kg, 30 min after 10 mg s.c., single animal, read-out: AFPep blood level, Day 1 Post-Treatment): 2200 ng/mL | level at 0.5 h ([3]; Yorkshire terrier, Yorkshire terrier, 5.86 kg, 30 min after dose, 10 mg s.c. once daily for 8 days, single animal, read-out: AFPep blood level, Day 8 Post-Treatment): 1900 ng/mL | level at 0.5 h ([3]; diverse breeds, Mean ± S.D. of 6 tumor-bearing dogs, 30 min after 10 mg s.c., first day, read-out: AFPep blood level, Day 1 Post-Treatment): 3600 ± 1200 ng/mL | level at 0.5 h ([3]; diverse breeds, Mean ± S.D. of 6 tumor-bearing dogs, 30 min after the day-8 dose, 10 mg s.c. once daily for 8 days, read-out: AFPep blood level, Day 8 Post-Treatment): 2500 ± 600 ng/mL | level at 0.5 h ([3]; summary of Table 6, 30 minutes post-AFPep, 10 mg s.c. once a day for 8 days, 6 tumor-bearing dogs, read-out: AFPep blood levels): 2000 to 3000 ng/mL | Estrogen-Induced Mammary Tumors in ACI Rats, % of Rats with Tumors ([4]; estradiol Silastic implant, AFPep s.c. once daily, p < 0.05): 48 * % | latency period of cancer appearance ([4]; hormone-induced model): prolonged | MCF-7 Human Breast Cancer Growth in SCID Mice (tumor volume) ([5]; AFPep 100 μg/mouse (4 mg/kg) oral gavage once daily for 14 days, established xenografts, p < 0.05 vs saline): 30 mm³ | blood levels of AFPep needed for anti-breast cancer activity [5]: 10^−7 M | minimum blood level (Cmax) needed for stoppage of xenograft growth ([5]; dose-response studies, human breast cancer xenografts in immune-deficient mice): 0.1 µg/mL | minimum AUC needed for stoppage of xenograft growth ([5]; dose-response studies, xenografts in mice): 6.5 µg·min/mL | tumor outgrowth when dosing begun immediately following tumor implantation ([5]; once daily, 30-day observation period): completely prevented | growth of established MCF-7 xenografts ([5]; once-daily oral 4 mg/kg over a 14-day period, immunodeficient mice): almost completely stopped in their growth | T1/2 ([6]; in vivo): 39 min | half-life ([6]; in vivo, iv, 4 mg/kg): 18 min | half-life ([6]; in vivo, sc, 4 mg/kg): 65 min | AUC [6, 9]: 14 min(µg/mL) | Cmax [6, 9]: 100 ng/mL | Cmax ([6]; iv, i.v., 4 mg/kg, non-linear regression, first-order PK model, read-out: Cmax): 35000 ng/mL | AUC ([6]; iv, i.v., 4 mg/kg, read-out: AUC (converted)): 15000 ng·h/mL | AUC ([6]; sc, s.c., 4 mg/kg, read-out: AUC (converted)): 13500 ng·h/mL | Cmax ([6]; sc, s.c., 4 mg/kg, read-out: Cmax): 5800 ng/mL | liver enzymes ([7]; 4 mg/kg i.v., dogs, no anesthesia, mild manual restraint): No such elevations in liver enzymes | changes to clinical chemistry and hematology values ([7]; 4 mg/kg i.v., normal beagle dogs): In no case did exposure to AFPep result in significant changes | Bilirubin Conjugated [7, 10]: 0 | Total Bilirubin [7, 10]: 0.1 mg/dL | WBC ([7]; dogs ~10 kg, 24 h after i.v. 40 mg AFPep, average ± range from 2 dogs): 7.0 ± 3 | Platelet ([7]; dogs ~10 kg, 24 h after i.v. 40 mg AFPep, average ± range from 2 dogs, in 10^3/µL (unit assumed)): 274 ± 21 | RBC ([7]; dogs ~10 kg, 24 h after i.v. 40 mg AFPep, average ± range from 2 dogs, in 10^6/µL (unit assumed)): 6.9 ± 1 | HCT ([7]; dogs ~10 kg, 24 h after i.v. 40 mg AFPep, average ± range from 2 dogs, in % (unit assumed)): 46 ± 1.5 | ALP [7, 11]: 33 ± 2 | ALT [7, 11]: 16 ± 1 | AST [7, 11]: 20 ± 1 | Creatine Kinase [7, 11]: 135 ± 2.7 | GGT [7, 11]: 3 ± 1 | MCV ([7]; dogs ~10 kg, 24 h after i.v. 40 mg AFPep, average ± range from 2 dogs, in fL (unit assumed)): 68 ± 0.8 | Albumin [7, 12]: 3.2 ± 0.1 | Globulin [7, 12]: 2.6 ± 0.1 | HGB [7, 12]: 15.9 ± 1 | Total Protein [7, 12]: 5.8 ± 0.1 | BUN [7, 13]: 13.2 ± 2 | Calcium [7, 13]: 10.3 ± 0.4 | Cholesterol [7, 13]: 171 ± 2 | Creatinine [7, 13]: 0.7 ± 0.1 | Glucose [7, 13]: 93 ± 9 | Phosphorous [7, 13]: 4.6 ± 0.2 | Bicarbonate TCO2 [7, 14]: 21 ± 1 | Chloride [7, 14]: 112 ± 1 | Potassium [7, 14]: 4.7 ± 0.1 | Sodium [7, 14]: 146 ± 2 | MCH ([7]; dogs ~10 kg, 24 h after i.v. 40 mg AFPep, average ± range from 2 dogs, in pg (unit assumed)): 23.2 ± 1 | Cmax ([8]; iv, 4 mg/kg (100 µg/mouse), non-linear regression, first-order PK model): 12000 ng/mL | AUC ([8]; iv, 4 mg/kg): 4200 ng·h/mL | half-life ([8]; iv, 4 mg/kg): 11 min | half-life ([8]; po): 6.3 min | half-life ([8]; sc, 4 mg/kg): 11 min | AUC ([8]; po, p.o. gavage, 4 mg/kg per footnote (100 mg/kg orally)): 80 ng·h/mL | Cmax ([8]; po, p.o. gavage, 4 mg/kg per footnote (escalated to 100 mg/kg orally)): 140 ng/mL | AUC ([8]; sc, 4 mg/kg): 3450 ng·h/mL | Cmax ([8]; sc, 4 mg/kg): 6400 ng/mL
